Experimental findings from ChEMBL document CHEMBL5316308, “BET-HDAC Dual Inhibitors for Combinational Treatment of Breast Cancer and Concurrent Candidiasis” (J Med Chem, 2023) are described below.

Each structure is given as a SMILES string. In brackets after ≈: the same amount, converted by molar mass.

Assay [1] addresses Histone deacetylase 1 (Homo sapiens, UniProt Q13547). Description: Inhibition of full-length recombinant human HDAC1 (1 to 482 residues) expressed in baculovirus infected insect cells using Ac-Leu-Gly-Lys(Ac)-AMC as substrate incubated for 30 mins by fluorescence based assay. More on the design: species or system Insect cell.
Assay [2] concerns the target Bromodomain-containing protein 4 (Homo sapiens, UniProt O60885). Put plainly: Inhibition of recombinant BRD4 (unknown origin) incubated for 120 mins by TR-FRET assay relative to control. Also noted: concentration or dose not given beside the values. A general note: In TR-FRET formats the signal depends on donor and acceptor labels being close together.
For assay [3], the system named is K562. Description: Antiproliferative activity against human K562 cells assessed as cell growth inhibition incubated for 24 hrs by CCK-8 assay. It counts as functional, cell-based. The conditions noted are these: K562, 24 h. A general note: Formazan colour is commonly taken as a measure of viable cells.
The test system of assay [4] is HEL. Put plainly: Antiproliferative activity against human HEL cells assessed as cell growth inhibition incubated for 24 hrs by CCK-8 assay. The assay is classed as functional, cell-based.
Assay [5] has as its system HL-60. Description: Antiproliferative activity against human HL-60 cells assessed as cell growth inhibition incubated for 24 hrs by CCK-8 assay. It counts as functional, cell-based. The settings on record: HL-60, 24 h.
Assay [6] deals with MDA-MB-231. Put plainly: Antiproliferative activity against human MDA-MB-231 cells assessed as cell growth inhibition incubated for 24 hrs by CCK-8 assay. It counts as functional, cell-based. The settings on record: MDA-MB-231, 24 h.
The test system of assay [7] is Cryptococcus neoformans. Description: Antifungal activity against Cryptococcus neoformans H99 assessed as fungal growth inhibition measured after 48 hrs by CLSI based micro-dilution broth method. The assay is classed as functional. In general terms: Broth dilution looks for growth in wells or tubes with falling amounts of substance.
Assay [8] relates to Candida albicans. Put plainly: microbe, parasite or virus in culture. It counts as functional. The conditions noted are these: 0304103, time 48 hrs.
Description: Synergistic antifungal activity against azole-resistant Candida albicans 0304103 assessed as fungal growth inhibition measured after 48 hrs by CLSI based micro-dilution broth method
For assay [9], the system named is Candida albicans. Put plainly: microbe, parasite or virus in culture. It counts as functional. The settings on record: 0304103, time 48 hrs. This is another data set of the same source.
Description: Synergistic antifungal activity against azole-resistant Candida albicans 0304103 assessed as fungal growth inhibition measured after 48 hrs in presence of FLC by CLSI based micro-dilution broth method
Assay [10] has as its system Candida albicans. It counts as functional, 0304103. The conditions noted are these: time 48 hrs.
Description: Synergistic antifungal activity against azole-resistant Candida albicans 0304103 assessed as fractional inhibitory concentration index measured after 48 hrs in presence of FLC by CLSI based micro-dilution broth method

Chain of Histone deacetylase 1 (Q13547 whole entry, the tested form may be a part): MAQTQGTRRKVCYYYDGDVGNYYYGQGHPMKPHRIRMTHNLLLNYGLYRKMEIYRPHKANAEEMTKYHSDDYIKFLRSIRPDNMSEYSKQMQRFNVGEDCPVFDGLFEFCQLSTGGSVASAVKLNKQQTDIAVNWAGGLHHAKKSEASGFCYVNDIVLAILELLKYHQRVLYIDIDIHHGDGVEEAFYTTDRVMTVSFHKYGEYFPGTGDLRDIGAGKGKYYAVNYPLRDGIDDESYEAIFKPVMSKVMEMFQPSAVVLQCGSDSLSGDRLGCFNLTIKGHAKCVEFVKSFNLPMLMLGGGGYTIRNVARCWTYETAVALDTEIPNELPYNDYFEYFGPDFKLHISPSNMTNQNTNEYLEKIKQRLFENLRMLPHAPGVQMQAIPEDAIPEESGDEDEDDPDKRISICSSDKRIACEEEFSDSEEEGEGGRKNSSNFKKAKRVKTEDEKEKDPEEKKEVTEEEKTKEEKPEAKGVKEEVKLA

On to `COc1cc2c(cc1-c1c(C)noc1C)[nH]c1ncnc(NCCCCCC(=O)Nc3ccc(/C=C/C(=O)NO)cc3)c12`, for which the IC50 in assay [1] was 0.252 µM; in [3], 8.1 µM; in assay [4] it was 8.9 µM; in [5], 3.8 µM; in assay [6], 14 µM. Also, the inhibition in assay [2] worked out at 56.1%. Also, the MIC80 in [7] was 2 µg/mL (≈ 3.43 µM); in assay [8], over 64 µg/mL; in assay [9], 1 µg/mL (≈ 1.71 µM). For the same compound, the “fractional inhibitory concentration index (FICI)” value in assay [10] stood at 0.26.
Turning to `COc1cc2c(cc1-c1c(C)noc1C)[nH]c1ncnc(NCCCCCCCC(=O)NO)c12`, the IC50 is 0.037 µM in assay [1]; 8.9 µM in assay [3]; 15 µM in assay [4]; over 50 µM in assay [5]; 3.8 µM in [6]. Further, the inhibition in assay [2] stood at 85.8%. The MIC80 is 2 µg/mL (≈ 4.29 µM) in [7], over 64 µg/mL in assay [8] and 2 µg/mL (≈ 4.29 µM) in assay [9]. Also, the “fractional inhibitory concentration index (FICI)” value in [10] stood at 0.062.
Consider `COc1cc2c(cc1-c1c(C)noc1C)[nH]c1nc(C)nc(Nc3ccc(/C=C/C(=O)NO)cc3)c12`, for which the half-maximal inhibitory concentration (IC50) in [1] is 1.2 µM; in [3], over 50 µM; in assay [4], over 50 µM; in assay [5], over 50 µM; in assay [6], 11 µM. Also, the inhibition in [2] turned out to be 55.2%. Moreover, the MIC80 in assay [7] is 16 µg/mL (≈ 33 µM); in assay [8], over 64 µg/mL; in assay [9], 0.5 µg/mL (≈ 1.03 µM). In addition, in [10], the “fractional inhibitory concentration index (FICI)” value was 0.13.
On to `COc1cc2c(cc1-c1c(C)noc1C)[nH]c1nc(C)nc(NCCCCCCCC(=O)NO)c12`, for which the IC50 is 0.2 µM in assay [1]; 3 µM in [3]; 3.3 µM in assay [4]; over 50 µM in [5]; 7.8 µM in assay [6]. Further, the inhibition in assay [2] turned out to be 86.2%. Besides, the MIC80 in [7] is 64 µg/mL (≈ 133 µM); in [8], over 64 µg/mL; in assay [9], 4 µg/mL (≈ 8.32 µM). Besides, the “fractional inhibitory concentration index (FICI)” value in assay [10] was 0.12.
Turning to `COc1cc2c(cc1-c1c(C)noc1C)[nH]c1ncnc(NCCCCC(=O)NO)c12`, the IC50 in [1] is over 2 µM; in assay [3] it was over 50 µM; in [4], over 50 µM; in assay [5], over 50 µM; in assay [6], over 50 µM. Also, the inhibition in assay [2] worked out at 11.1%. Also, the MIC80 in [7], in assay [8] and in assay [9] was over 64 µg/mL each time. The “fractional inhibitory concentration index (FICI)” value in assay [10] is over 2.
As for `COc1cc2c(cc1-c1c(C)noc1C)[nH]c1nc(C)nc(NCCCCCC(=O)Nc3ccc(C(=O)NO)cc3)c12`, the concentration for half-maximal inhibition (IC50) in assay [1] is 0.086 µM; in [3] it was 18 µM; in assay [4], over 50 µM; in [5], 6.5 µM; in [6], 16 µM. Further, the inhibition in assay [2] worked out at 79.7%. The figures for the MIC80 in assay [7], in assay [8] and in assay [9] were 4 µg/mL (≈ 7 µM), over 64 µg/mL and 1 µg/mL (≈ 1.75 µM), respectively. Further, the “fractional inhibitory concentration index (FICI)” value in [10] is reported as 0.047.
As to `COc1cc2c(cc1-c1c(C)noc1C)[nH]c1ncnc(NCCCCCC(=O)NO)c12`, the IC50 is 0.203 µM in [1]; 17 µM in [3]; 13 µM in [4]; over 50 µM in assay [5]; over 50 µM in assay [6]. Moreover, in [2], the inhibition was 64.7%. The MIC80 was 32 µg/mL (≈ 73 µM) in [7], over 64 µg/mL in [8] and 0.5 µg/mL (≈ 1.14 µM) in [9]. Also, the “fractional inhibitory concentration index (FICI)” value in assay [10] came to 0.5.
As to `COc1cc2c(cc1-c1c(C)noc1C)[nH]c1ncnc(Nc3ccc(C(=O)NO)cc3)c12`, the half-maximal inhibitory concentration (IC50) in assay [1] was 0.974 µM; in assay [3] it was over 50 µM; in [4] it was over 50 µM; in assay [5], 6.7 µM; in assay [6], 19 µM. Besides, the inhibition in [2] turned out to be 53.4%. In addition, the MIC80 in assay [7] came to 64 µg/mL (≈ 144 µM); in assay [8] it was 64 µg/mL (≈ 144 µM); in [9], 8 µg/mL (≈ 18 µM). For the same compound, in [10], the “fractional inhibitory concentration index (FICI)” value was 0.25.
`COc1cc2c(cc1-c1c(C)noc1C)[nH]c1nc(C)nc(NCCCCCC(=O)NO)c12`: the 50% inhibitory concentration (IC50) in assay [1] was 0.124 µM; in assay [3], 17 µM; in [4] it was 7.1 µM; in assay [5], 7.9 µM; in assay [6], over 50 µM. The inhibition in assay [2] worked out at 90.8%. In addition, the MIC80 in assay [7] is 32 µg/mL (≈ 70.7 µM); in assay [8], over 64 µg/mL; in [9] it was 2 µg/mL (≈ 4.42 µM). Further, the “fractional inhibitory concentration index (FICI)” value in assay [10] is 0.16.
Consider `COc1cc2c(cc1-c1c(C)noc1C)[nH]c1nc(C)nc(NCCCCCC(=O)Nc3ccc(/C=C/C(=O)NO)cc3)c12`, for which the 50% inhibitory concentration (IC50) in assay [1] is 1.1 µM; in [3] it was 6 µM; in assay [4] it was over 50 µM; in assay [5], 3.1 µM; in assay [6], 16 µM. Moreover, the inhibition in [2] stood at 58.3%. For the same compound, the MIC80 in assay [7] is 4 µg/mL (≈ 6.69 µM); in assay [8], over 64 µg/mL; in [9], 1 µg/mL (≈ 1.67 µM). For the same compound, in assay [10], the “fractional inhibitory concentration index (FICI)” value was 0.078.
In the case of `COc1cc2c(cc1-c1c(C)noc1C)[nH]c1ncnc(Nc3ccc(/C=C/C(=O)NO)cc3)c12`, the half-maximal inhibitory concentration (IC50) in [1] is over 2 µM; in assay [3], 11 µM; in assay [4], over 50 µM; in assay [5], over 50 µM; in assay [6], 6.3 µM. Moreover, the inhibition in assay [2] is 67.5%. Moreover, the figures for the MIC80 in assay [7], in [8] and in assay [9] were 16 µg/mL (≈ 34 µM), over 64 µg/mL and 8 µg/mL (≈ 17 µM), respectively. Further, the “fractional inhibitory concentration index (FICI)” value in assay [10] came to 0.25.
Regarding `COc1cc2c(cc1-c1c(C)noc1C)[nH]c1nc(C)nc(Nc3ccc(C(=O)NO)cc3)c12`, the IC50 is 0.395 µM in assay [1]; over 50 µM in assay [3]; over 50 µM in assay [4]; 2.3 µM in [5]; 9.3 µM in assay [6]. The inhibition in assay [2] was determined as 79.8%. Also, the values for the MIC80 in [7], in [8] and in assay [9] were over 64 µg/mL, over 64 µg/mL and 0.5 µg/mL (≈ 1.09 µM), respectively. Also, the “fractional inhibitory concentration index (FICI)” value in assay [10] worked out at 0.07.
Turning to `COc1cc2c(cc1-c1c(C)noc1C)[nH]c1nc(C)nc(NCc3ccc(C(=O)NO)cc3)c12`, the IC50 was 0.448 µM in [1]; 1.8 µM in [3]; 2.7 µM in assay [4]; 2.4 µM in [5]; 8.3 µM in assay [6]. The inhibition in [2] stood at 97.5%. Besides, the MIC80 in assay [7] was 64 µg/mL (≈ 135 µM); in assay [8], over 64 µg/mL; in assay [9], 2 µg/mL (≈ 4.23 µM). Besides, the “fractional inhibitory concentration index (FICI)” value in assay [10] turned out to be 0.062.
In the case of `COc1cc2c(cc1-c1c(C)noc1C)[nH]c1nc(C)nc(Nc3cccc(C(=O)NO)c3)c12`, the 50% inhibitory concentration (IC50) was over 2 µM in [1]; 3.8 µM in assay [3]; over 50 µM in assay [4]; over 50 µM in assay [5]; 9.8 µM in assay [6]. Also, the inhibition in assay [2] came to 14.8%. Also, the MIC80 in assay [7], in assay [8] and in assay [9] was over 64 µg/mL each time. In assay [10], the “fractional inhibitory concentration index (FICI)” value is reported as over 2.

As a reminder, the IC50 is the concentration at which inhibition is half-maximal. As a reminder, the inhibition is the relative decrease from the control value, in per cent.
